Measurements reported in US20240228488A1 (TAKEDA PHARMACEUTICAL COMPANY LIMITED, priority 2021, published 2024).

Biological target: human activated kallikrein enzyme (Homo sapiens, UniProt P03952)
Assay: Plasma kallikrein inhibition, fluorogenic PFR-AMC substrate, 500 pM activated kallikrein format
Type: biochemical
Details: 500 pM activated kallikrein, 300 uM PFR-AMC, 30 min preincubation, 10 min reaction; read-out: Primary Dose Response Assay: Average EC50
How it was run: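 Enzyme (500 pM) was preincubated with inhibitor for 30 min at room temperature in 20 mM Tris pH 7.5, 1 mM EDTA, 150 mM NaCl, 0.1% PEG-400 and 0.1% Triton X-100. The reaction was started with 300 uM PFR-AMC, run 10 min, and fluorescence read at 460 nm (380 nm excitation). EC50 derived.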

Chain of human activated kallikrein enzyme (P03952 391-638 limits assumed): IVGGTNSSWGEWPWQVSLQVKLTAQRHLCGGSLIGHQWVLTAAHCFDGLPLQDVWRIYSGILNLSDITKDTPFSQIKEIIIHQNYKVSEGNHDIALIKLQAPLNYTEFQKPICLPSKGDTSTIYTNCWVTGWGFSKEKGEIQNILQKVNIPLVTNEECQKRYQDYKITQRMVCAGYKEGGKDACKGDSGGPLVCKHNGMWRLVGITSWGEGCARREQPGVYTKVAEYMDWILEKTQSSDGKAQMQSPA
Chain of human activated kallikrein enzyme (P03952 20-390 partner limits assumed): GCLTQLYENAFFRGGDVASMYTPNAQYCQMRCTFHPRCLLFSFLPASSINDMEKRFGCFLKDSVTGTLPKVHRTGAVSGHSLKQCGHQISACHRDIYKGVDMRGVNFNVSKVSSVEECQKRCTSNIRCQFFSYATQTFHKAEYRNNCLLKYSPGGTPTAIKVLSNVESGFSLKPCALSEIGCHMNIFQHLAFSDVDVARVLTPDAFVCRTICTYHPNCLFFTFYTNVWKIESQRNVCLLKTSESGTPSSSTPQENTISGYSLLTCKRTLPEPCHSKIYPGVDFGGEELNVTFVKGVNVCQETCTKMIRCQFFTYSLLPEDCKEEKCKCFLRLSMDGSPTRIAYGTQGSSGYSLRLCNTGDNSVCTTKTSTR

Structure (SMILES)	EC50
COc1ccnc([C@H]2C[C@@H]2C(=O)Nc2cc(NCc3cn4cc(C5CC5)ccc4n3)ccn2)c1 (racemic) [Example I-214, rac-(1S*,2S*)-N-(4-(((6-cyclopropylimidazo[1,2-a]pyridin-2-yl)methyl)amino)pyridin-2-yl)-2-(4-methoxypyridin-2-yl)cyclopropane-1-carboxamide]	1 to 10 nM
COc1cc([C@H]2C[C@@H]2C(=O)Nc2cc(NCc3cn4cc(C5CC5)ccc4n3)ccn2)cc(NC(=O)OC(C)(C)C)n1 (racemic) [Example I-216, rac-tert-butyl (4-((1S*,2S*)-2-((4-(((6-cyclopropylimidazo[1,2-a]pyridin-2-yl)methyl)amino)pyridin-2-yl)carbamoyl)cyclopropyl)-6-methoxypyridin-2-yl)carbamate]	> 6000 nM
O=C(Nc1cc(NCc2cn3cc(C4CC4)ccc3n2)ccn1)[C@H]1C[C@@H]1c1ccc(Cl)s1 (racemic) [Example I-218, rac-(1S*,2S*)-2-(5-chlorothiophen-2-yl)-N-(4-(((6-cyclopropylimidazo[1,2-a]pyridin-2-yl)methyl)amino)pyridin-2-yl)cyclopropane-1-carboxamide]	10 to 100 nM
O=C(Nc1cc(NCc2cn3cc(C4CC4)ccc3n2)ccn1)[C@H]1C[C@@H]1c1ccnc(Cl)c1 (racemic) [Example I-220, rac-(1S*,2S*)-2-(2-chloropyridin-4-yl)-N-(4-(((6-cyclopropylimidazo[1,2-a]pyridin-2-yl)methyl)amino)pyridin-2-yl)cyclopropane-1-carboxamide]	10 to 100 nM
O=C(Nc1cc(NCc2cn3cc(C4CC4)ccc3n2)ccn1)[C@H]1C[C@@H]1c1cncc(Cl)c1 (racemic) [Example I-221, rac-(1S*,2S*)-2-(5-chloropyridin-3-yl)-N-(4-(((6-cyclopropylimidazo[1,2-a]pyridin-2-yl)methyl)amino)pyridin-2-yl)cyclopropane-1-carboxamide]	10 to 100 nM
O=C(Nc1cc(NCc2cn3cc(C4CC4)ccc3n2)ccn1)[C@H]1C[C@@H]1c1n[nH]c2ccc(Cl)cc12 (racemic) [Example I-225, rac-(1S*,2S*)-2-(5-chloro-1H-indazol-3-yl)-N-(4-(((6-cyclopropylimidazo[1,2-a]pyridin-2-yl)methyl)amino)pyridin-2-yl)cyclopropane-1-carboxamide]	> 6000 nM
Nc1cc(Cl)cc([C@H]2C[C@@H]2C(=O)Nc2cc(NCc3cn4cc(C5CC5)ccc4n3)ncn2)c1 (racemic) [Example I-256, rac-(1S*,2S*)-2-(3-amino-5-chlorophenyl)-N-(6-(((6-cyclopropylimidazo[1,2-a]pyridin-2-yl)methylamino)pyrimidin-4-yl)cyclopropane-1-carboxamide]	10 to 100 nM
O=C(Nc1cc(NCc2cn3cc(C4CC4)ccc3n2)ncn1)[C@H]1C[C@@H]1c1cc(Cl)ccn1 (racemic) [Example I-265, rac-(1S*,2S*)-2-(4-chloropyridin-2-yl)-N-(6-(((6-cyclopropylimidazo[1,2-a]pyridin-2-yl)methyl)amino)pyrimidin-4-yl)cyclopropane-1-carboxamide]	1 to 10 nM
O=C(Nc1cc(NCc2cn3cc(C4CC4)ccc3n2)ccn1)[C@@H]1C[C@]12CCc1ccc(Cl)cc12 (racemic) [Example I-271, rac-(1S*,2S*)-6′-chloro-N-(4-(((6-cyclopropylimidazo[1,2-a]pyridin-2-yl)methyl)amino)pyridin-2-yl)-2′,3′-dihydrospiro[cyclopropane-1,1′-indene]-2-carboxamide]	< 1 nM
O=C(Nc1cc(NCc2cn3cc(C4CC4)cc(N4C[C@H](O)CC4=O)c3n2)ncn1)[C@H]1C[C@@H]1c1cccc(Cl)c1 (relative stereo) [Example 65, rac-(1S*,2S*)-2-(3-chlorophenyl)-N-(6-(((6-cyclopropyl-8-((R)-4-hydroxy-2-oxopyrrolidin-1-yl)imidazo[1,2-a]pyridin-2-yl)methyl)amino)pyrimidin-4-yl)cyclopropane-1-carboxamide]	1 to 10 nM
CC1CCN(c2cc(C3CC3)cn3cc(CNc4cc(NC(=O)[C@H]5C[C@@H]5c5cccc(Cl)c5)ncn4)nc23)C1=O (relative stereo) [Example 67, rac-(1S*,2S*)-2-(3-chlorophenyl)-N-(6-(((6-cyclopropyl-8-(3-methyl-2-oxopyrrolidin-1-yl)imidazo[1,2-a]pyridin-2-yl)methyl)amino)pyrimidin-4-yl)cyclopropane-1-carboxamide]	1 to 10 nM
CC1OCCN(c2cc(C3CC3)cn3cc(CNc4cc(NC(=O)[C@H]5C[C@@H]5c5cccc(Cl)c5)ncn4)nc23)C1=O (relative stereo) [Example 68, rac-(1S*,2S*)-2-(3-chlorophenyl)-N-(6-(((6-cyclopropyl-8-(2-methyl-3-oxomorpholino)imidazo[1,2-α]pyridin-2-yl)methyl)amino)pyrimidin-4-yl)cyclopropane-1-carboxamide]	1 to 10 nM
C[S+]([O-])c1nc(NCc2cn3cc(C4CC4)ccc3n2)cc(NC(=O)[C@H]2C[C@@H]2c2cccc(Cl)c2)n1 (relative stereo) [Example 109, rac-(1S*,2S*)-2-(3-chlorophenyl)-N-(6-(((6-cyclopropylimidazo[1,2-a]pyridin-2-yl)methyl)amino)-2-(methylsulfinyl)pyrimidin-4-yl)cyclopropane-1-carboxamide]	1 to 10 nM
O=C(Nc1cc(NCc2cn3cc(C4CC4)cc(N4CCCC4=O)c3n2)ccn1)[C@@H]1C[C@H]1c1cccc(Cl)c1 (relative stereo) [Example 118]	< 1 nM
N#Cc1ccc(Cl)cc1[C@H]1C[C@@H]1C(=O)Nc1cc(C(O)c2cn3cc(C4CC4)ccc3n2)ncn1 (relative stereo) [Example 352, rac-(1S*,2S*)-2-(5-chloro-2-cyanophenyl)-N-(6-((6-cyclopropylimidazo[1,2-a]pyridin-2-yl)(hydroxy)methyl)pyrimidin-4-yl)cyclopropane-1-carboxamide]	10 to 100 nM
Cc1nc(NC(=O)[C@H]2C[C@@H]2c2nsc(C)n2)cc(N[C@H](C)c2cn3cc(C4CC4)cc(N4CC(=O)N(C)C4=O)c3n2)n1 (relative stereo) [Example 527, rac-(1S*,2S*)-N-(6-(((R)-1-(6-cyclopropyl-8-(3-methyl-2,4-dioxoimidazolidin-1-yl)imidazo[1,2-a]pyridin-2-yl)ethyl)amino)-2-methylpyrimidin-4-yl)-2-(5-methyl-1,2,4-thiadiazol-3-yl)cyclopropane-1-carboxamide]	1 to 10 nM
Cc1ccnc([C@H]2C[C@@H]2C(=O)Nc2cc(N3C[C@@H](O)C[C@@H]3c3cn4cc(C5CC5)ccc4n3)ncn2)c1F (relative stereo) [Example 542, rac-(1S*,2S*)-N-(6-((2R,4S)-2-(6-cyclopropylimidazo[1,2-a]pyridin-2-yl)-4-hydroxypyrrolidin-1-yl)pyrimidin-4-yl)-2-(3-fluoro-4-methylpyridin-2-yl)cyclopropane-1-carboxamide]	10 to 100 nM
O=C(Nc1cc(NCc2cn3cc(C4CC4)ccc3n2)ccn1)[C@@H]1C[C@]12CCc1ccc(Cl)cc12 (relative stereo) [Example I-272, rac-(1S*,2S*)-6′-chloro-N-(4-(((6-cyclopropylimidazo[1,2-a]pyridin-2-yl)methyl)amino)pyridin-2-yl)-2′,3′-dihydrospiro[cyclopropane-1,1′-indene]-2-carboxamide]	1000 to 6000 nM
Cc1ccnc([C@@H]2C[C@H]2C(=O)Nc2cc(OCc3cn4cc(C5CC5)cc(N5CC(=O)N(C)C5=O)c4n3)ncn2)n1 (single isomer, unassigned) [Example 29]	100 to 1000 nM
Cc1ccnc([C@H]2C[C@@H]2C(=O)Nc2cc(O[C@@H](C)c3cn4cc(C5CC5)cc(N5CC(=O)N(C)C5=O)c4n3)cnn2)n1 (single isomer, unassigned) [Example 41]	10 to 100 nM
Cc1ccnc([C@H]2C[C@@H]2C(=O)Nc2cc(O[C@H](C)c3cn4cc(C5CC5)cc(N5CC(=O)N(C)C5=O)c4n3)cnn2)n1 (single isomer, unassigned) [Example 42]	< 1 nM
O=C(Nc1cc(NCc2cn3cc(C4CC4)ccc3n2)ncn1)[C@@H]1C[C@H]1c1cccc(Cl)c1 (single isomer, unassigned) [Example 56]	100 to 1000 nM
N#Cc1ccc(Cl)cc1[C@@H]1C[C@H]1C(=O)Nc1cc(NCc2cn3cc(C4CC4)ccc3n2)ccn1 (single isomer, unassigned) [Example 83]	10 to 100 nM
N#Cc1ccc(Cl)cc1[C@H]1C[C@@H]1C(=O)Nc1cc(NCc2cn3cc(C4CC4)ccc3n2)ccn1 (single isomer, unassigned) [Example 84]	< 1 nM
O=C(Nc1cc(NCc2cn3cc(C4CC4)ccc3n2)ccn1)[C@@H]1C[C@H]1c1cccc(Cl)c1 (single isomer, unassigned) [Example 116]	100 to 1000 nM
Cc1ccnc([C@@H]2C[C@H]2C(=O)Nc2cc(NCc3cn4cc(C5CC5)cc(S(C)(=O)=O)c4n3)ncn2)n1 (single isomer, unassigned) [Example 323]	10 to 100 nM
Cc1ccnc([C@H]2C[C@@H]2C(=O)Nc2cc(N[C@@H](C)c3cn4cc(C5CC5)cc(N5CC(=O)N(C)C5=O)c4n3)ncn2)n1 (single isomer, unassigned) [Example 452]	10 to 100 nM
C[C@H]1[C@H](C(=O)Nc2cc(NCc3cn4cc(C5CC5)ccc4n3)ncn2)[C@H]1c1cccc(Cl)c1 (single isomer, unassigned) [Example 505, (1R*,2R*,3S*)-2-(3-chlorophenyl)-N-(6-(((6-cyclopropylimidazo[1,2-a]pyridin-2-yl)methyl)amino)pyrimidin-4-yl)-3-methylcyclopropane-1-carboxamide]	10 to 100 nM
C[C@H]1[C@H](C(=O)Nc2cc(NCc3cn4cc(C5CC5)ccc4n3)ncn2)[C@H]1c1cccc(Cl)c1 (single isomer, unassigned) [Example 506, (1R*,2R*,3S*)-2-(3-chlorophenyl)-N-(6-(((6-cyclopropylimidazo[1,2-a]pyridin-2-yl)methyl)amino)pyrimidin-4-yl)-3-methylcyclopropane-1-carboxamide]	> 6000 nM
